Key:
SUR1-Y1353*/Kir6.2-G334D = assay: Currents in inside-out patches; assay type: biochemical, Homo sapiens; conditions: co-expressed with pANAP and pERF1-E55D
Procedure: (§1) Currents were recorded from inside-out membrane patches excised from transfected HEK-293T cells. Pipettes were pulled to a resistance of 1–5 MΩ and filled with an extracellular solution containing (in mM) 140 KCl, 1.2 MgCl2, 2.6 CaCl2, and 10 HEPES, pH 7.4 or 140 KCl, 1 EGTA, 10 HEPES, pH 7.3. The intracellular (bath) solutions contained either (in mM) 107 KCl, 2 MgCl2, 1 CaCl2, 10 EGTA, and 10 HEPES, pH 7.2 for experiments showing nucleotide-dependent activation or 140 KCl, 1 EDTA, 1 EGTA, 10 HEPES pH 7.3 for experiments showing nucleotide-dependent inhibition. Nucleotides were added as indicated. Patches were perfused with an 8-channel µFlow perfusion system. Data were acquired at a holding potential of −60 mV using an Axopatch 200B amplifier and Digidata 1322A digitizer with pClamp 9.0 software (Molecular Devices). Currents were digitized at 10 kHz and low-pass filtered at 1 kHz. KATP channels run down in excised patches (reviewed by Proks et al.) ([Proks et al., 2016]). For inhibitory concentration-response relationships, rundown was corrected by alternating test nucleotide solutions with nucleotide-free (control) solutions and expressing the test currents as a fraction of the average of the control currents before and after the test solution. […]

[1] = tested on: SUR1/Kir6.2-G334D with K1384A (K2A) in NBS2; design: method as in Proks et al., 2014; conditions: ref Proks et al., 2014; cited from earlier work
SUR1/Kir6.2-G334D = target: T1, SUR1/Kir6.2-G334D (Homo sapiens, UniProt Q09428); design: method as in Proks et al., 2010; conditions: ref Proks et al., 2010; read-out: EC50 for activation of currents; cited from earlier work
T1 construct: expressed in transfected cells; host or cells: HEK-293T

3xFLAG_SUR1/Kir6.2 = target: T2, 3xFLAG_SUR1/Kir6.2 (Homo sapiens, UniProt Q09428+Q14654, INS1042[…]); assay: Current response to 100 μM nucleotide relative to nucleotide-free solution, inside-out patches; assay type: biochemical
T2 construct: expressed in transfected cells; host or cells: HEK-293T
Procedure: as §1

SUR1-Y1353^stop/Kir6.2 = target: T3, SUR1-Y1353^stop/Kir6.2 (Homo sapiens, UniProt Q09428+Q14654); assay: as above; assay type: biochemical; conditions: truncated SUR1-Y1353^stop
T3 construct: expressed in transfected cells; host or cells: HEK-293T
T3 sequence (Q09428 1-1352): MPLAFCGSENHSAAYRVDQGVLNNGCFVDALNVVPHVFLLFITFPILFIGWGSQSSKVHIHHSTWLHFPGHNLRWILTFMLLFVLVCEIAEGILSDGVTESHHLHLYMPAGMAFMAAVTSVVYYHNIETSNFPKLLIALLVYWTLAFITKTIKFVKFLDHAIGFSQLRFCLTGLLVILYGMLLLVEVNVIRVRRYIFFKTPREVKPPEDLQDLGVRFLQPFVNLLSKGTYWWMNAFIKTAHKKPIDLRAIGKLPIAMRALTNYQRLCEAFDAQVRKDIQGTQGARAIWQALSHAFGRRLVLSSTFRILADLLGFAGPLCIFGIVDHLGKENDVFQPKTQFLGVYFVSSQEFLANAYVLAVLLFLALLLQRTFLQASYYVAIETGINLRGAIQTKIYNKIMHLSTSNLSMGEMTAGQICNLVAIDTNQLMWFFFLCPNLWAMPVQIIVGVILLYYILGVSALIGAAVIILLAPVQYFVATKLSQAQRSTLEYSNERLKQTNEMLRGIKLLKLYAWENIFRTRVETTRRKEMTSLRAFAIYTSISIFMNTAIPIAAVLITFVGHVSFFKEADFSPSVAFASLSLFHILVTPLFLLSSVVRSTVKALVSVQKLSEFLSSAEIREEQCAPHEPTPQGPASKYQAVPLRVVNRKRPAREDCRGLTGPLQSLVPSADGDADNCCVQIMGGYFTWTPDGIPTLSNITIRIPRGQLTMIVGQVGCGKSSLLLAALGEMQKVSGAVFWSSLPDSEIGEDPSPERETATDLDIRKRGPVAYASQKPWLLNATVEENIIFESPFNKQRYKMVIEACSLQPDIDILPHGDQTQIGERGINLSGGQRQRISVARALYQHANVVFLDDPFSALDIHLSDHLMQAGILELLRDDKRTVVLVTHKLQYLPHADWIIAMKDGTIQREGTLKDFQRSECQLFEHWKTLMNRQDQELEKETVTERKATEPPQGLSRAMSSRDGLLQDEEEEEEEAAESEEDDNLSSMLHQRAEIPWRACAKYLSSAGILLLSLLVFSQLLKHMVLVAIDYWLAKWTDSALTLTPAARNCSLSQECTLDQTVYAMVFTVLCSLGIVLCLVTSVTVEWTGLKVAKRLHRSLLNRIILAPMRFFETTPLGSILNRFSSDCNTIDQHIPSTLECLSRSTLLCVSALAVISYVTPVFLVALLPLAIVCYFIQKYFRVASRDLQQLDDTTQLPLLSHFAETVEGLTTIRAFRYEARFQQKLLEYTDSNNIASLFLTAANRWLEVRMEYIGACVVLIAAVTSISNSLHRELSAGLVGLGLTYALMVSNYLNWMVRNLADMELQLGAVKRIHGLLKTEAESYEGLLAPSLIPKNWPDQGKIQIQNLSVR
T3 sequence (Q14654 1-390): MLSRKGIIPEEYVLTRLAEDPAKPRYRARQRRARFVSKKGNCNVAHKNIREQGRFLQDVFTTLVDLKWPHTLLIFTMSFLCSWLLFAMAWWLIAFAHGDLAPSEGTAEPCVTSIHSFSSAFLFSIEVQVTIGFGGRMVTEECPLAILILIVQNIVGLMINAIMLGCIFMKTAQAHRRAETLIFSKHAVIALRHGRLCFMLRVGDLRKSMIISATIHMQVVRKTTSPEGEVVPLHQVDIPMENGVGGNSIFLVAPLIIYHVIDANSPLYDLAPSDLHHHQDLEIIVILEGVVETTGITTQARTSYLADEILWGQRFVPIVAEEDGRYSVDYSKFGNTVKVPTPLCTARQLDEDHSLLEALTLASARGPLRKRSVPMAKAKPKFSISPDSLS
Procedure: as §1

T1 sequence (Q09428 whole entry, stated change not applied): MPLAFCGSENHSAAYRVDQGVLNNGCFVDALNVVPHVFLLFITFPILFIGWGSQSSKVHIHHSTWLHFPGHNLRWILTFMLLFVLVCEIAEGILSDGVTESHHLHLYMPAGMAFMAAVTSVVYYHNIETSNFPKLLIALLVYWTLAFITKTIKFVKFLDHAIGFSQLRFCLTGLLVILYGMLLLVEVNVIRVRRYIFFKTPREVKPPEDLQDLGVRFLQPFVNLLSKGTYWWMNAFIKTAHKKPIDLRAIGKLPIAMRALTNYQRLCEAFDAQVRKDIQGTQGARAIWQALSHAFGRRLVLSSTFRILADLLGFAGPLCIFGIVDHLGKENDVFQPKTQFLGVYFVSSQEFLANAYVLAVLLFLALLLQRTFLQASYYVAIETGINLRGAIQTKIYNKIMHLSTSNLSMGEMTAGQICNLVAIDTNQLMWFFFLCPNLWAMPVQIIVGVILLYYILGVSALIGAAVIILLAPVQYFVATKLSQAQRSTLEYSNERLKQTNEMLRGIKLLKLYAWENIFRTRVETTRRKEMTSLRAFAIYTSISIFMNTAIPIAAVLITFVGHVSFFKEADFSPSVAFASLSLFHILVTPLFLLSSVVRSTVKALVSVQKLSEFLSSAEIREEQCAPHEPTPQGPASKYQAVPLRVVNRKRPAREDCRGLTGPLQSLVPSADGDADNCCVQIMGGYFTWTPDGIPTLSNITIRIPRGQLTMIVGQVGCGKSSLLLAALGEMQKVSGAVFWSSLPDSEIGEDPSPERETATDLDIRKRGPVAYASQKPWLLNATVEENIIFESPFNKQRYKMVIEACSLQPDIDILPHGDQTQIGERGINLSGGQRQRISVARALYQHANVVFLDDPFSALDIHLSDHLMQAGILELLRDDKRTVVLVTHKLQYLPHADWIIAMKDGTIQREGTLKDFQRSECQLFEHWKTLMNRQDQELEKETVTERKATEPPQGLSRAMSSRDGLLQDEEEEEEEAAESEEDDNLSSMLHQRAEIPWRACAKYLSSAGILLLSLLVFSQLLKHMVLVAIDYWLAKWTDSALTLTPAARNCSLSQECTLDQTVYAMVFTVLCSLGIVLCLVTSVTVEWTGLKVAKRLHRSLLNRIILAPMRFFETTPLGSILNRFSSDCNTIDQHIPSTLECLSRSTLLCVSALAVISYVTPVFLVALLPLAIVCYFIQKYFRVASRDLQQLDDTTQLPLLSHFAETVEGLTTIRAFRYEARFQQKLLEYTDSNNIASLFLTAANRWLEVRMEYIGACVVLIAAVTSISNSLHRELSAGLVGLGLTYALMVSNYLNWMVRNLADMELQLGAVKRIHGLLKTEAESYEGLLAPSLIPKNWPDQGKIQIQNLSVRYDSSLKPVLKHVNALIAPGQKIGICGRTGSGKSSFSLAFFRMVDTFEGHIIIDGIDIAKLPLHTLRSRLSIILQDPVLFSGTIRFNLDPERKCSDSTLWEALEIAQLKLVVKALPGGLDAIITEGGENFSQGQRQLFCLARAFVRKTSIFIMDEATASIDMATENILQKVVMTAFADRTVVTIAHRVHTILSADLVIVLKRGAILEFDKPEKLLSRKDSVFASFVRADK
T1 sequence (Q14654 whole entry G334D partner): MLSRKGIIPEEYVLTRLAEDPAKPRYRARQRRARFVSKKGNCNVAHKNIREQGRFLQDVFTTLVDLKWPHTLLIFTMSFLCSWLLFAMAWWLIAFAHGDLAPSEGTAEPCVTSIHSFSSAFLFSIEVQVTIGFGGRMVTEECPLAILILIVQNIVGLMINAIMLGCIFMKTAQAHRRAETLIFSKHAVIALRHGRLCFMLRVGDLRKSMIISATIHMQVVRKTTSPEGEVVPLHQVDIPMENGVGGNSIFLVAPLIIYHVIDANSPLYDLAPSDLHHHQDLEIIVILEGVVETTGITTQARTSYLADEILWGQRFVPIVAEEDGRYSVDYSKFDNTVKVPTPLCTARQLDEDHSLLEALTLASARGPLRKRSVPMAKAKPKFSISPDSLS
T2 sequence (Q09428 with tags, fused parts or gaps INS1042[withheld], one chain of several): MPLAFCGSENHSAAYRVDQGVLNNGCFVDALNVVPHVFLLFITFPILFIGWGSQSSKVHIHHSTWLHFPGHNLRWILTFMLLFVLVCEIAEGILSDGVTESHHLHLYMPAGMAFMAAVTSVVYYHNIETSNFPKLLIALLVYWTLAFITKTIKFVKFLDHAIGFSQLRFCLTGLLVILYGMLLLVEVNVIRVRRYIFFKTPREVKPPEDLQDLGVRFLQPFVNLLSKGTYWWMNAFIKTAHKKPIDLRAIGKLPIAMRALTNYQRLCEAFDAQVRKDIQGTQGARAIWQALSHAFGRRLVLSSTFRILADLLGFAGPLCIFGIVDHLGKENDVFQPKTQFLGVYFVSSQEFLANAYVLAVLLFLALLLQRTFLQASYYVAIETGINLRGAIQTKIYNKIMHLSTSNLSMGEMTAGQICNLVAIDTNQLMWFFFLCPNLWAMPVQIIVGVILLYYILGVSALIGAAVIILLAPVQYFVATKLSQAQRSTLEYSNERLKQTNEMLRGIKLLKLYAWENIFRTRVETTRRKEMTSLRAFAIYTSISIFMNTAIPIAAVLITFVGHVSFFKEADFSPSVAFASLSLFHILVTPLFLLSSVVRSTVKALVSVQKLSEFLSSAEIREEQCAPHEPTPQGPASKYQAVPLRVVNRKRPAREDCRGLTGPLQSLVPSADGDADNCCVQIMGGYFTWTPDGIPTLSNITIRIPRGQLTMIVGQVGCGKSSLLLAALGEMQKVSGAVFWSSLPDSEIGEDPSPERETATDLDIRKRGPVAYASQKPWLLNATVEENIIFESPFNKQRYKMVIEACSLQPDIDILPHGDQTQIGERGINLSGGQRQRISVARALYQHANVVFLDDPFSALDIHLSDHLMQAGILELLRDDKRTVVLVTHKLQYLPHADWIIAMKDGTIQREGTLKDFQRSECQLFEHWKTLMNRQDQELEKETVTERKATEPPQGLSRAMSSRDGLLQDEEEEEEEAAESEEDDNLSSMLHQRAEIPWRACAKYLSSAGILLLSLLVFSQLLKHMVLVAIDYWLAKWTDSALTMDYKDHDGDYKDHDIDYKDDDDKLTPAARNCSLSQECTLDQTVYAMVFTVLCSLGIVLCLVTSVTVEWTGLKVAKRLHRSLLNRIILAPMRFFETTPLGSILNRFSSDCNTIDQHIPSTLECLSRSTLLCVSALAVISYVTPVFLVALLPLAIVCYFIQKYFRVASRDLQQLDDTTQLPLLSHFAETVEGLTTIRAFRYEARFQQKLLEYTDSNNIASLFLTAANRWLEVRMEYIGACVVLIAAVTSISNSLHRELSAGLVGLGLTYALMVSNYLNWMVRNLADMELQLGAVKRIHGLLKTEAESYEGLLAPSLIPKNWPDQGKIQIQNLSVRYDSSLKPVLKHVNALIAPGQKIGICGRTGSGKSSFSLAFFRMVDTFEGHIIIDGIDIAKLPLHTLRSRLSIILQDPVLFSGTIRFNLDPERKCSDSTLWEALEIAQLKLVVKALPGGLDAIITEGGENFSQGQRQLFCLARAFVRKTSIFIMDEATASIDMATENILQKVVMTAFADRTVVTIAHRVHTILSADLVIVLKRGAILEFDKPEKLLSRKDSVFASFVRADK

## Nc1ncnc2c1ncn2[C@@H]1O[C@H](COP(=O)([O-])OP(=O)([O-])O)[C@@H](O)[C@H]1O.[Mg+2] [MgADP]
SUR1-Y1353*/Kir6.2-G334D
  effect on currents: no activation
[1]
  shift of concentration dependence of activation to higher concentrations by K2A mutation: > 20 fold
SUR1/Kir6.2-G334D
  EC50: 7.7 µM
3xFLAG_SUR1/Kir6.2
  increase of current over nucleotide-free control: 3.6 fold
SUR1-Y1353^stop/Kir6.2
  inhibition of current: 59%

Source: publication PMC6400584, “Activation mechanism of ATP-sensitive K^+ channels explored with real-time nucleotide binding” (eLife, 2019)
